In patent US10206979B2, “Treatment agent for cognitive impairment induced by amyloid beta-protein, therapeutic agent for alzheimer's disease, and treatment method and pathological analysis method related to these” (NATIONAL UNIVERSITY CORPORATION OKAYAMA UNIVERSITY, priority 2013, dated 2019):
No end group written: not given here.

Experiments:
[1] = system: memory disorder induced by amyloid β protein oligomer; experiment: novel object recognition test in mouse model of memory disorder by administration of the amyloid β protein oligomer; type: in vivo, ICR mice; conditions: for ability to remember (exploration time for novel object vs familiar object): 1 μM amyloid β protein oligomer + 10 μM peptide in artificial cerebrospinal fluid, 3.5 μl/side to lateral ventricles, test session 24 h after training, paired t-test
Experimental: Preparation of a mouse model of memory disorder by administration of the amyloid β protein oligomer, and evaluation of the ability of memory acquisition by a novel object recognition test were carried out according to an earlier paper (Balducci et al., Proc Natl Acad Sci USA 107, 2295-2300, 2010).
ICR mice (6 to 7 weeks old) were anesthetized with ketamine (100 mg/kg) and xylazine (40 mg/kg), and each mouse was fixed on a brain stereotaxic apparatus. After removal of the scalp, small holes were made on the skull on the lateral ventricles, and guide cannulae (23 gage) were bilaterally embedded at the positions of ±1.0 mm lateral and 0.65 mm posterior to the bregma. The guide cannulae were fixed with a dental resin. After a period of four to five days for recovery from the surgery, each mouse was allowed to move freely for 10 minutes in order to allow acclimatization to the environment in a test cage (39 cm×22 cm) (habituation). This was continued for 3 days. On the next day, an artificial cerebrospinal fluid (control), artificial cerebrospinal fluid in Which 1 μM amyloid β protein oligomer is dissolved, or artificial cerebrospinal fluid in which 1 μM amyloid β protein oligomer and 10 μM p3-Alcβ37 peptide or a partial peptide thereof are dissolved, was bilaterally administered (3.5 μl/side) to the lateral ventricles through the guide cannulae embedded in the head, using an injection cannulae (30 gage, 1.7 mm from the brain surface).
Two hours after the administration, two identical objects (glass vials each having a plastic cap [objects A]: 3-cm diameter×6.5-cm height) were placed in the test cage for which the habituation had been carried out, such that the objects were positioned about 20 cm distant from each other. In the test cage, each mouse was allowed to move freely for 10 minutes to allow learning of the object A (training session). On the next day, 24 hours after the learning, a test was carried out to investigate if the mouse remembered the object A, which was presented on the previous day (test session). More specifically, in the same test cage, the object A presented on the previous day (that is, a familiar object) and a novel object (a metal cube [object B]: 4 cm×4 cm×4 cm) were placed at the same positions as those used on the previous day, and the mouse was allowed to move freely for 10 minutes in the test cage. In normal mice, since they naturally show interest in novel objects, the time for exploring the novel object (object B) is longer than the time for exploring the familiar object (object A). […] The exploratory behavior for each object was recorded using a video camera, and the total exploration time for each object was calculated. The time spent for contacting or approach of the head to the object (including sniffing), and contacting of a forelimb or hindlimb with the object was included in the exploration time. The ability of memory acquisition of the mice in each group was represented using the discrimination index. The discrimination index was defined as follows: ([exploration time for novel object]−[exploration time for familiar object ])/([exploration time for novel object]+[exploration time for familiar object]). In cases where discrimination between the novel object and the familiar object is impossible, the discrimination index is 0, while in cases where the exploration time for the novel object is longer than the exploration time for the familiar object, the discrimination index is positive. […] Therefore, the calculation of the exploration time and the discrimination index was carried out based on the behavior observed during the first 5 minutes after the placement of the mouse in the test cage.
In terms of the reagents used, the composition of the artificial cerebrospinal fluid was as follows: 137 mM NaCl, 3 mM KCl, 1 mM MgCl2, 1.2 mM CaCl2, 2.5 mM glucose, and 2 mM sodium phosphate buffer (pH 7.4). […]

[2] = system: memory disorder induced by MK-801 (NMDA receptor-dependent memory disorder); experiment: novel object recognition test in mouse model of memory disorder prepared by administration of NMDA receptor inhibitor MK-801; type: in vivo, ICR mice; conditions: 10 μM peptide to cerebral ventricle; (+)-MK-801 maleate 2 mg/kg intraperitoneally; paired t-test, P>0.05
Experimental: ICR mice (6 to 7 weeks old) were anesthetized with ketamine (100 mg/kg) and xylazine (40 mg/kg), and each mouse was fixed on a brain stereotaxic apparatus. After removal of the scalp, small holes were made on the skull on the lateral ventricles, and guide cannulae (23 gage) were bilaterally embedded at the positions of ±1.0 mm lateral and 0.65 mm posterior to the bregma. The guide cannulae were fixed with a dental resin. After a period of four to five days for recovery from the surgery, each mouse was allowed to move freely for 10 minutes in order to allow acclimatization to the environment in a test cage (39 cm×22 cm) (habituation). This was continued for 3 days. […]
Two hours after the administration, two identical objects (glass vials each having a plastic cap [objects A]: 3-cm diameter×6.5-cm height) were placed in the test cage for which the habituation had been carried out, such that the objects were positioned about 20 cm distant from each other. […] The exploratory behavior for each object was recorded using a video camera, and the total exploration time for each object was calculated. […]

| Sequence | ability to remember (exploration time for novel object vs familiar object) [1] | discrimination index relative to the group in which the oligomer was administered ([1]; 1 μM oligomer + 10 μM peptide, lateral ventricles, Tukey test, P<0.01) | discrimination index relative to the group in which the artificial cerebrospinal fluid was administered ([1]; 1 μM oligomer + 10 μM peptide, lateral ventricles, Tukey test, P>0.05) | effect to ameliorate memory disorder (exploration time for novel object vs familiar object) [2] |
| --- | --- | --- | --- | --- |
| GHSLASSHRNSMIPSAAT (a part of p3-Alc beta 37 (position 20-37)) [p3-Alcβ37 [20-37], partial peptide corresponding to positions 20 to 37 of p3-Alcβ37] | no recovery of the ability to remember | – | – | – |
| HRGHQPPPEMA (a part of p3-Alc beta 37 (position 9-19)) [p3-Alcβ37[9-19], partial peptide corresponding to positions 9 to 19 of p3-Alcβ37 (11 amino acids)] | ability to remember showed remarkable recovery | – | – | – |
| VLSSQQFLHRG (a part of p3-Alc beta 37 (position 1-11)) [p3-Alcβ37[1-11], partial peptide corresponding to positions 1 to 11 of p3-Alcβ37] | ability to remember remained impaired | – | – | – |
| VLSSQQFLHRGHOPPPEMA (VLSSQQFLHRGHQPPPEMA; not fully specified) [p3-Alcβ37 [1-19], partial peptide corresponding to positions 1 to 19 of p3-Alcβ37] | remarkable recovery of the ability to remember | – | – | – |
| VLSSQQFLHRGHQPPPEMAGHSLASSHRNSMIPSAAT (listed as Homo sapiens) [p3-Alcβ37, peptide composed of 37 amino acids produced by cleavage of Alcadein-β by γ-secretase and α-secretase] | remarkable recovery of the ability to remember | significant increase in the discrimination index | No significant difference in the discrimination index | effect to ameliorate memory disorder was not found |
